What was measured:
CCD-19Lu = assay: In vitro cytotoxicity, MTT assay; format: cell-based; conditions: 72 h incubation
[1] = Systemic toxicity in mice bearing HCT116 xenografts (body weight, histopathology, blood biochemistry); format: in vivo
Source text: FIGS. 9A-9H show blood biochemistry analysis of ALT, AST, GLB, BUN, CREA, UA, LDH and CK, respectively, in the mice (n=8) at 24 days post-treatment.

A2780adr = conditions: for Toxicity toward cancer cells compared to that toward MIHA cells / Toxicity toward cancer cells compared to that toward NCM460 cells / IC50: A2780adr; for Toxicity toward cancer cells compared to that toward MIHA cells: IC50 of MIHA cells/IC50 of cancer cells; for Toxicity toward cancer cells compared to that toward NCM460 cells: IC50 of NCM460 cells/IC50 of cancer cells; for IC50: MTT assay, 72 h incubation; for Resistance found in A2780adr: Determined by IC50 of A2780adr cells/IC50 of A2780 cells
MIHA = assay: In vitro cytotoxicity, MTT assay; conditions: MIHA; MTT assay, 72 h incubation
HCT116 xenografts = format: in vivo; conditions: 4 mg/kg intravenous, 24 days, n=8, p<0.01
Source text: FIGS. 8B and 8C show changes in tumor volume and body weight, respectively, in mice (n=8) after treatment with different doses of 1 or A1. The control group received an equal volume of PBS only. ** denotes p<0.01 vs. control.
Significant pulmonary hemorrhage in the alveoli and a thickening of alveolar walls were found. Also, apoptotic hepatocytes and swollen renal epithelial cells were found, leading to subsequent shrinkage of kidney tubules. […] The lower systemic toxicity of 1 can be explained by the lower accumulation of 1 in the organs of mice treated at its effective dosage, as compared to that of A1 and Au1a (FIG. 10).

A2780adr cells = assay: Cellular uptake by ICP-MS; format: cell-based, human; conditions: 2 μM, 37° C.
Source text: Based on the results of previous study on cellular uptake of nanostructures [Davis, M. E. et al. Nat. Rev. Drug Discov. 2008, 7, 771] and the strong dependence of the uptake mechanism of 1 on temperature, K^+ concentration and hypertonic condition (FIG. 3d), nanostructures of 1 likely entered live cells by clathrin-mediated endocytosis.
To rationalize the lower toxicity of NC1 toward MIHA cells, cellular uptake of NC1 by MIHA and cancer cells has been investigated by ICP-MS (FIGS. 3b and 4). The gold contents in A2780 and A2780adr cells were 2.6- and 2.0-fold higher than that in MIHA cells, respectively, after incubation with NC1 for 2 h. […] On the other hand, co-incubation of MIHA cells with 1 and DOX should not lead to significant changes in cellular uptake rate of DOX. […] For NC1, it was less toxic toward MIHA cells as reflected by the apparent “strong antagonism” (Table 3), which should be owing to the decrease of DOX cellular uptake by the encapsulation from the nanostructures of 1, rather than real antagonism from DOX and 1.

NCM460 = assay: In vitro cytotoxicity, MTT assay; format: cell-based, human; conditions: 72 h incubation
A2780 = assay: In vitro cytotoxicity, MTT assay; format: cell-based, human; conditions: for Toxicity toward cancer cells compared to that toward MIHA cells: IC50 of MIHA cells/IC50 of cancer cells; for Toxicity toward cancer cells compared to that toward NCM460 cells: IC50 of NCM460 cells/IC50 of cancer cells; for IC50: MTT assay, 72 h incubation
HCT116 = assay: In vitro cytotoxicity, MTT assay; format: cell-based, human; conditions: for IC50: HCT116, MTT assay, 72 h incubation; for Toxicity toward cancer cells compared to that toward MIHA cells / Toxicity toward cancer cells compared to that toward NCM460 cells: HCT-116; for Toxicity toward cancer cells compared to that toward MIHA cells: IC50 of MIHA cells/IC50 of cancer cells; for Toxicity toward cancer cells compared to that toward NCM460 cells: IC50 of NCM460 cells/IC50 of cancer cells
HeLa = assay: In vitro cytotoxicity, MTT assay; format: cell-based, human; conditions: for Toxicity toward cancer cells compared to that toward MIHA cells: IC50 of non-tumorigenic MIHA cells/IC50 of cancer cells; for Toxicity toward cancer cells compared to that toward NCM460 cells: IC50 of non-tumorigenic NCM460 cells/IC50 of cancer cells; for IC50: MTT assay, 72 h incubation, read-out: IC50
Source text: Therefore, it was anticipated that a not too high loading of DOX into nanostructures of 1 could be used for anti-cancer purposes in order to maintain low toxicity toward non-tumorigenic cells. Together with the higher encapsulation efficiency of DOX, NC1 was selected for investigations of the in vitro cytotoxicity. […] The in vitro cytotoxicity of NC1 was also compared to that of the mixture of nanostructures of 1 and DOX. […] The observed cytotoxicity was further evaluated by the combination index (CI), which can describe the effect of drug combination. […] It is shown that dose and effect are interchangeable via defined parameters. This general equation for the single drug effect has been extended to the multiple drug effect equation for n drugs. These equations provide the theoretical basis for the combination index (CI)-isobologram equation that allows quantitative determination of drug interactions, where CI<1, =1, and >1 indicate synergism, additive effect, and antagonism, respectively. [Chou, et al. Pharmacol. Rev. 2006, 58, 621] […] The synergistic effect can originate from different molecular targets and/or mechanism of action of DOX from that of gold(III) porphyrin complexes. […] These different modes of action would allow supra-additive effect on killing HeLa cells by the co-delivery.

A2780cis = assay: In vitro cytotoxicity, MTT assay; format: cell-based, human; conditions: for Toxicity toward cancer cells compared to that toward MIHA cells / Toxicity toward cancer cells compared to that toward NCM460 cells / IC50: A2780cis; for Toxicity toward cancer cells compared to that toward MIHA cells: IC50 of MIHA cells/IC50 of cancer cells; for Toxicity toward cancer cells compared to that toward NCM460 cells: IC50 of NCM460 cells/IC50 of cancer cells; for IC50: MTT assay, 72 h incubation; for Resistance found in A2780cis: Determined by IC50 of A2780cis cells/IC50 of A2780 cells
non-tumorigenic cells = assay: In vitro cytotoxicity, MTT assay, non-tumorigenic cells; format: cell-based; conditions: 72 h
HCT116 cells [2] = assay: Hydrolysis of the gold(III) complexes in live cells, UPLC-QTOF-MS; format: in vitro ADME, human; conditions: 2 μM, 24 h, UPLC-QTOF-MS of lysates
Procedure: Hydrolysis of the gold(III) complexes in live cells has been studied by ultra-performance liquid chromatography coupled quadrupole-time-of-flight mass spectrometry (UPLC-QTOF-MS). Colon cancer cells, HCT116, were treated with 1 and A1 (2 μM) for 24 h, harvested and lysed by acetonitrile-water solution mixture (3:1, v/v) prior to UPLC-QTOF-MS analysis. […] In view of the fact that the peak with retention time of 6.44 min in the total-ion chromatogram of cell lysates of HCT116 treated with 1 was absence in the total-ion chromatogram of 1 in acetonitrile solution, this peak should be owing to the metabolite of 1 formed in HCT116 cells.

NCI-H460 = assay: In vitro cytotoxicity, MTT assay; format: cell-based, human; conditions: for Toxicity toward cancer cells compared to that toward MIHA cells: IC50 of MIHA cells/IC50 of cancer cells; for Toxicity toward cancer cells compared to that toward NCM460 cells: IC50 of NCM460 cells/IC50 of cancer cells; for IC50: MTT assay, 72 h incubation
NCM460 cells [3] = assay: Induction of apoptosis, CellEvent Caspase-3/7 Green (microscopy and flow cytometry); conditions: NCM460, 2 μM, fluorescence microscopy
HCT116 cells [4] = assay: Apoptosis in co-culture cell model of HCT116 and NCM460; format: cell-based, human; conditions: 2 μM, 24 h, Caspase-3/7 Green Reagent, flow cytometry
Procedure: (§1) In order to differentiate the two different cell lines, NCM460 cells were pre-treated by blue-emissive CMF2HC dye prior to its co-culture with HCT116 cells. […] On the other hand, the co-culture model treated with 1 for 24 h was stained by FITC-Annexin V and propidium iodide, and imaged by fluorescence microscopy. Green and red fluorescence were primarily observed in cells without showing blue luminescence, i.e. HCT16 cells. […] The results of both fluorescence microscopy and flow cytometry support the high selectivity of 1 on killing colon cancer cells in the co-culture model of cancer and normal cells.
(§2) This co-culture model treated with 1 for 24 h had 25.04 and 5.01% of HCT116 and NCM460 cells, respectively, undergoing apoptosis as determined by Caspase-3/7 Green Reagent staining and flow cytometric analysis. This confirms the preferential induction of apoptosis by 1 of HCT116 cells over NCM460 cells in the co-culture model, regardless of the effect, if any, of the blue emissive CMF2HC dye.

NCM460 cells [5] = assay: as above; format: cell-based, human; conditions: NCM460 in co-culture, 2 μM, 24 h, Caspase-3/7 Green Reagent, flow cytometry
Procedure: as §1, §2

HCT116 cells [6] = assay: Induction of apoptosis, CellEvent Caspase-3/7 Green (microscopy and flow cytometry); format: cell-based, human; conditions: HCT116, 2 μM, fluorescence microscopy
HCT116 cells [7] = assay: Apoptosis by FITC-Annexin V staining, flow cytometry; format: cell-based, human; conditions: HCT116, 2 μM, 24 h
Source text: (§3) The selective induction of apoptosis of HCT116 cells over NCM460 cells by 1 was further studied using FITC-Annexin V staining. Phosphatidylserine residues, which are located on the cytoplasmic surface of the cell membrane in normal live cells, will be translocated to outer plasma membrane in apoptotic cells. […] The quantity of apoptotic cells stained by FITC-Annexin V after treatment with 1 and Au1a was investigated by flow cytometry.

NCM460 cells [8] = assay: as above; format: cell-based, human; conditions: NCM460, 2 μM, 24 h
Source text: as §3

[9] = acute toxicological study, Chem. Commun. 2011, 47, 9554; cited from earlier work

SMILES | IC50 (CCD-19Lu) | Toxicity toward cancer cells compared to that toward MIHA cells (A2780adr) | Toxicity toward cancer cells compared to that toward NCM460 cells (A2780adr) | IC50 (A2780adr) | Resistance found in A2780adr (A2780adr) | IC50 (MIHA) | Incubation time after which amount in A2780adr cells decreases (A2780adr cells) | IC50 (NCM460) | Toxicity toward cancer cells compared to that toward MIHA cells (A2780) | Toxicity toward cancer cells compared to that toward NCM460 cells (A2780) | IC50 (A2780) | IC50 (HCT116) | Toxicity toward cancer cells compared to that toward MIHA cells (HCT116) | Toxicity toward cancer cells compared to that toward NCM460 cells (HCT116) | Toxicity toward cancer cells compared to that toward MIHA cells (HeLa) | Toxicity toward cancer cells compared to that toward NCM460 cells (HeLa) | IC50 (HeLa) | Toxicity toward cancer cells compared to that toward MIHA cells (A2780cis) | Toxicity toward cancer cells compared to that toward NCM460 cells (A2780cis) | IC50 (A2780cis) | also measured
COC(=O)c1ccc(-c2c3nc(c(-c4ccccc4)c4ccc([n-]4)c(-c4ccccc4)c4nc(c(-c5ccccc5)c5ccc2[n-]5)C=C4)C=C3)cc1.[Au+3].[Cl-] [A1] | 730 ± 40 nM | 1.1 | 0.2 | 650 ± 60 nM | 0.31 | 700 ± 100 nM | 0.75 h | 130 ± 10 nM | 3.5 | 0.7 | 200 ± 20 nM | 90 ± 10 nM | 7.7 | 1.4 | 0.9 | 0.2 | 800 ± 100 nM | 3.5 | 0.7 | 200 ± 30 nM | Blood biochemistry (organ damage indicators) ([1]; 4 mg/kg, for 1: ALT, GLB, BUN and CK, p<0.05): significant damage in the lung, liver and kidney; Histopathological analysis of lung, liver, kidney, heart and spleen ([1]; after treatment (A1: 4 mg/kg)): damage in normal lung, liver and kidney tissues; Reduction of tumor volume (HCT116 xenografts): 56%; Reduction of tumor weight (HCT116 xenografts): 49%; Resistance found in A2780cis (A2780cis): 1.0; IC50 for non-tumorigenic cells (non-tumorigenic cells): submicromolar range; Species formed by hydrolysis of ester bond in cells (HCT116 cells [2]): [Au(TPP—COOH)]^+; Toxicity toward cancer cells compared to that toward MIHA cells (NCI-H460): 7.0; Toxicity toward cancer cells compared to that toward NCM460 cells (NCI-H460): 1.3; IC50 (NCI-H460): 100 ± 10 nM
C1=Cc2nc1c(-c1ccccc1)c1ccc([n-]1)c(-c1ccccc1)c1nc(c(-c3ccccc3)c3ccc([n-]3)c2-c2ccccc2)C=C1.[Au+3].[Cl-] [Au1a, [Au(TPP)]Cl, reference compound] | 230 ± 40 nM | 0.4 | 0.06 | 1100 ± 100 nM | 0.11 | 400 ± 70 nM | 0.5 h | 70 ± 10 nM | 3.3 | 0.6 | 120 ± 20 nM | 90 ± 20 nM | 4.4 | 0.8 | 0.6 | 0.1 | 660 ± 40 nM | 3.5 | 0.4 | 180 ± 10 nM | Incubation time to induction of apoptosis (NCM460 cells [3]): 20 h; Incubation time to large number of apoptotic events (NCM460 cells [3]): 32 h; Population percentage of apoptotic cells (corrected) (HCT116 cells [4]): 54.6%; Population percentage of apoptotic cells (corrected) (NCM460 cells [5]): 29.3%; Incubation time to induction of apoptosis (HCT116 cells [6]): 12 h; Incubation time to significant apoptotic events / large population of apoptotic cells (HCT116 cells [6]): 32 h; Resistance found in A2780cis (A2780cis): 0.67; Percentage of apoptotic cells (HCT116 cells [7]): 39.6%; Percentage of apoptotic cells (NCM460 cells [8]): 39.3%; Effective dose to combat tumor growth relative to lethal dose [9]: close to the lethal dose; IC50 for non-tumorigenic cells (non-tumorigenic cells): submicromolar range; Toxicity toward cancer cells compared to that toward MIHA cells (NCI-H460): 1.7; Toxicity toward cancer cells compared to that toward NCM460 cells (NCI-H460): 0.3; IC50 (NCI-H460): 230 ± 10 nM

Reference: patent US11135310B2, “Gold porphyrin-PEG conjugates and methods of use” (The University of Hong Kong, priority 2015, dated 2021)
